These results are taken from patent US11242327B2, “Analgesic compounds” (RECURIUM IP HOLDINGS, LLC, priority 2017, dated 2022).

One data set concerns the target T1, COX-2 (Homo sapiens, UniProt P35354).
T1 sequence (P35354 18-604): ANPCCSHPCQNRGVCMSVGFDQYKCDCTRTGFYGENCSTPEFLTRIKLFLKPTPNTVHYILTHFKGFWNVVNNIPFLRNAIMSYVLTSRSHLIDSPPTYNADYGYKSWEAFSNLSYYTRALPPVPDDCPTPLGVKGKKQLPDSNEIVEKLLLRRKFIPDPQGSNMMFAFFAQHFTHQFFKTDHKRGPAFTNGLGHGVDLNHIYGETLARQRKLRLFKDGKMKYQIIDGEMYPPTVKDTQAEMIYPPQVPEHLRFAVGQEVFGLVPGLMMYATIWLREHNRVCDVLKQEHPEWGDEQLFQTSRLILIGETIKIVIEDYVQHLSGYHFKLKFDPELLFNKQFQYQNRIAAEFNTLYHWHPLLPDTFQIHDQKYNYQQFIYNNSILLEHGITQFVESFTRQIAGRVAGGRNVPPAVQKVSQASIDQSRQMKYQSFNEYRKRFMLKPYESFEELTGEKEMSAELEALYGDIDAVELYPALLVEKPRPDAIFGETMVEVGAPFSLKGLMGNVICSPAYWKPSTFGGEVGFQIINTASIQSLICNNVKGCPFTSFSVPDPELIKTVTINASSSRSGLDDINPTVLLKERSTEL
The experiment in a line: NSAIDS and Opioid Receptor Test: COX-2. Type of data set: biochemical. The note with it: read-out: % Inhibition, COX-2 (human). The procedure: (§1) Compounds were screened as DMSO solutions at 10 μM, 100 μM, or 200 μM and values represent percent inhibition of control-specific binding. […] As NSAID and opioid mechanisms of action are precluded, a person of ordinary skill in the art understands that undesirable side effects associated with inhibition of COX receptors in NSAIDs and activation of opiate receptors in opioids can be avoided by compounds described herein. Furthermore, opioids are known to lose their analgesic potency after to continued administration. (See Benyamin, et al. “Opioid Complications and Side Effects” Pain Physician 11 (2008): S105-S120). As the data indicates compounds described herein have a different mechanism action compared to opioids, a person of ordinary skill in the art would appreciate that compounds described herein would not be expected to lose their analgesic potency like opioids after continued admininistration.

Another data set has as its target Opiate μ (Homo sapiens, UniProt P35372). The experiment in a line: NSAIDS and Opioid Receptor Test: Opiate μ. In kind it is binding. The note with it: 10 μM. The procedure:
as §1

The next data set deals with Opiate κ (Homo sapiens, UniProt P41145). Nature of the data set: NSAIDS and Opioid Receptor Test: Opiate κ. In kind it is binding. The note with it: 10 μM. The procedure: as §1
Another data set deals with male Sprague-Dawley rats. Nature of the data set: UVB Inflammatory Pain Test (thermal hyperalgesia). In kind it is in vivo. The note with it: rat, oral, 300 mg/kg. The procedure: UVB irradiation to the surface of the hind paw was used to induce cutaneous inflammatory pain in non-fasted male Sprague-Dawley rats weighing 175-300 g. On Day −3, animals were restrained and the plantar surface of the left hind paw was exposed to 350 mJoules/cm^2 of UVB irradiation using a narrow band UVB light source (Daavlin®, Bryan, Ohio). Following UVB irradiation, animals were returned to their home cage. Thermal hyperalgesia was assessed prior to dosing and approximately 1, 2, and 4 hours after dosing on Day 0 using a radiant heat plantar test apparatus (IITC Life Sciences©; Woodland Hills, Calif.). Animals were placed in individual acrylic chambers on a glass platform warmed to 30±2° C. and allowed to acclimate to their surroundings for a minimum of 15 minutes before testing. The stimulus was presented to the plantar surface and the timer was activated. The stimulus intensity was set such that pre-injury paw withdrawal latencies were approximately 12-18 seconds. Paw withdrawal latency values were recorded at the first observed nocifensive behavior (paw withdrawal, flinching, biting and/or licking). Three paw withdrawal latencies were measured for each hind paw per time point. The mean of the 3 values was taken as the paw withdrawal latency for that time point. A maximum cutoff latency of 30 seconds was used to prevent injury to the animal. The mean and standard error of the mean (SEM) were determined for each paw for each treatment group at each time point. Test compounds were administered orally at concentrations of 3, 10, 30 or 100 mg/kg; celecoxib was administered orally at a concentration of 30 mg/kg; and acetaminophen was administered orally at a concentration of 300 mg/kg. The control group received the vehicle (sterile water). In Table 4, ‘A’ designates >8 seconds of paw withdrawal latency, ‘B’ designates >6 and <8 seconds of paw withdrawal latency, and ‘C’ designates <6 seconds of paw withdrawal latency.
The results provided in Table 4 are for oral administration in rats. […] Furthermore, while acetaminophen was dosed at 300 mg/kg, compounds of Formulae (Ie), (Ih) and (Ik), or a pharmaceutically acceptable salt of any of the foregoing, were dosed at 3 mg/kg, 10 mg/kg and 100 mg/kg.

A further data set deals with COX-1 (Homo sapiens, UniProt P23219). Nature of the data set: NSAIDS and Opioid Receptor Test: COX-1. In kind it is biochemical. The note with it: read-out: % Inhibition, COX-1 (human). The procedure: as §1
Another data set concerns the target Opiate δ1 (Homo sapiens, UniProt P41143). The experiment in a line: NSAIDS and Opioid Receptor Test: Opiate δ1. In kind it is binding. The procedure:
as §1

The subject of a further data set is adult male C57BL/6 mice. The experiment in a line: Conditioned Place Preference (Abuse) Test. Type of data set: in vivo, mouse. The note with it: mouse, in vivo, ip. An excerpt: A conditioned place preference (CPP) model was used to assess the reward properties of compounds of formulae (Ie), or a pharmaceutically acceptable salt of any of the foregoing, in adult male C57BL/6 mice. The CPP model apparatus consisted of a Plexiglas© test unit having three (A, B, C) compartments (9 cm×9 cm×16 cm) configured to allow access to all chambers. Compartments A and C had textually distinct flooring and wall marking. Mice were placed in the middle compartment with free access to the other compartments. On day 1 and 2, the “naive chamber preference” was assessed by placing the animal in the middle chamber twice a day (AM and PM) for 30 min on two consecutive days, with the chamber showing the greatest residence time being called the “preferred chamber”. On “drug pairing days” (days 5, 6, 7 and 8) mice were injected IP with vehicle (50 mM citric acid) in the AM in the preferred chamber and the drug/vehicle in the afternoon in the non-preferred chamber for four consecutive days. On the morning of day 9 (the day after the last drug pairing), the “drug chamber preference” was assessed by placing the mouse (absent any injection) in the middle chamber, with free access to all chambers for 30 minutes. This was repeated five days later (day fourteen), with no intervening drug treatment.
The time spent on days 9 and 14 (e.g. […] respectively after the last drug treatment) in the drug associated chamber was the test datum and is represented in FIG. 1. […] In contrast, there was no increase in the non-preferred chamber residence time when the least-preferred chamber was paired with saline, APAP or test compounds 2 or 28 on either days 9 or 14, or days 0 or 5.

Structures are written as SMILES.

Opiate κ, sequence (P41145 whole entry): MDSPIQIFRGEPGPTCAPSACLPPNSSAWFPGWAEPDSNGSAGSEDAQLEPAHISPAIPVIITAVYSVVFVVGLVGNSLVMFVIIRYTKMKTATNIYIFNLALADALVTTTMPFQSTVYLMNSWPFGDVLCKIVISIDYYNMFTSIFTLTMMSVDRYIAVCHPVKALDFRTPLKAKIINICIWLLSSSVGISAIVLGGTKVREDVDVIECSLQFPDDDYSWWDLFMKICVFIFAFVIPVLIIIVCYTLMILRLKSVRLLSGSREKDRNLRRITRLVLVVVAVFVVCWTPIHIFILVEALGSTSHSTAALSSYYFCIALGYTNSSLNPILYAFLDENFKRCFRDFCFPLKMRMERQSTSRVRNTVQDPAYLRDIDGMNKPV
Opiate δ1, sequence (P41143 whole entry): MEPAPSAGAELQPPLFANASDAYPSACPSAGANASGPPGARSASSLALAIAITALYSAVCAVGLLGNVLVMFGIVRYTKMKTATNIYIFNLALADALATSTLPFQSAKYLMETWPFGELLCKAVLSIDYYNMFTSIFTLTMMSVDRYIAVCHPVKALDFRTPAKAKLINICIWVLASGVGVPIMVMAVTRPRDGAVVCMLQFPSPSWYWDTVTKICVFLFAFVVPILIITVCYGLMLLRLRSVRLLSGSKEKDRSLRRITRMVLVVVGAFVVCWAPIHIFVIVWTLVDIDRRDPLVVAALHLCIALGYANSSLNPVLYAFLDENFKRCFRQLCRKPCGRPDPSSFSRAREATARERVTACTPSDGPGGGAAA
COX-1, sequence (P23219 24-599): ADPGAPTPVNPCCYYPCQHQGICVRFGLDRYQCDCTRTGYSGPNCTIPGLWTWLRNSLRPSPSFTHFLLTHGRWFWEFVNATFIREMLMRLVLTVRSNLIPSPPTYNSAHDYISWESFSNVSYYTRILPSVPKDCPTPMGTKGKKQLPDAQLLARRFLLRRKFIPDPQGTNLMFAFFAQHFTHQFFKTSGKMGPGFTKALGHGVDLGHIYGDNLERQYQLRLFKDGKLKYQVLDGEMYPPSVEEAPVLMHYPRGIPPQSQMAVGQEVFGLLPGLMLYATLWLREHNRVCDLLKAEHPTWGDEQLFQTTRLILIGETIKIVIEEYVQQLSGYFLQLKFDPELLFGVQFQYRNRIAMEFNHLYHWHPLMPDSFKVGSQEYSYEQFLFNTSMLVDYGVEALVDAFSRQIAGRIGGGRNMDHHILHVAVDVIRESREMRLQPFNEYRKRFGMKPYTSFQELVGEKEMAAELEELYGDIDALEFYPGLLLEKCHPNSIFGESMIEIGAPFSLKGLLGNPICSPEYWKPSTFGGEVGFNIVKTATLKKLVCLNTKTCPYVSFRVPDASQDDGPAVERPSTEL
Opiate μ, sequence (P35372 whole entry): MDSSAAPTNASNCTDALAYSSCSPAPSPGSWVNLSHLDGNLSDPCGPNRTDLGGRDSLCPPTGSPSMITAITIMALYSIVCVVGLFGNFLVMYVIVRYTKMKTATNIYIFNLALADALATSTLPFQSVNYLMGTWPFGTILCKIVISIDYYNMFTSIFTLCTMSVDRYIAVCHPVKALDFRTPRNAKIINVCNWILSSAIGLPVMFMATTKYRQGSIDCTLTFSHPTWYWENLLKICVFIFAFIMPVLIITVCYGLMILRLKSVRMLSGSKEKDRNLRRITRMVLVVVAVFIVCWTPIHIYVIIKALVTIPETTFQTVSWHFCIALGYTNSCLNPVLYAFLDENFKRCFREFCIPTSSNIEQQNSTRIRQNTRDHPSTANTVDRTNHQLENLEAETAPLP

With `CC(=O)Nc1ccc(O)cc1` [Acetaminophen, reference compound], the inhibition at 10 µM on COX-2 was 3%; against Opiate μ, -5%; at Opiate κ, -1%; at COX-1, -7%; on Opiate δ1 it was 2%. Further, the “paw withdrawal latency, 1 h” value in the data set on male Sprague-Dawley rats (1 h after dosing) is “A (>8 seconds of paw withdrawal latency)”. Further, in the data set with male Sprague-Dawley rats (2 h after dosing), the “paw withdrawal latency, 2 h” value is reported as “A (>8 seconds of paw withdrawal latency)”. Also, in the data set with male Sprague-Dawley rats (4 h after dosing), the “paw withdrawal latency, 4 h” value is on record as “A (>8 seconds of paw withdrawal latency)”. The “least preferred (drug associated) chamber residence time” value with adult male C57BL/6 mice is reported as “no increase”.
